Source: PMC7722660 (Neuropsychopharmacology Reports, 2020)
“And” between values parts separate entries of the source, which are not always exact repeats. Equal entries are not always repeated.

Columns and labels:
[1] = test system: rats; assay: Rat EEG; type: in vivo; details: 100 mg/kg p.o., vs vehicle
[2] = test system: 55 molecular targets, including neurotransmitter receptors, ion channels, and transporters; assay: Cerep ExpresSProfile off-target panel; type: binding; details: 10 μmol/L
[3] = Brain penetration: plasma and brain concentrations in rats; details: rat, in vivo, po
[4] = Pharmacokinetic study in rats; type: in vivo; details: rat, plasma
[5] = Spontaneous locomotor activity in rats; type: in vivo, rat; details: up to 100 mg/kg, data not shown
[6] = test system: rats; details: cited from earlier work
[7] = test system: OX2 receptor; details: agonist ref 21; cited from earlier work
[8] = test system: OX2 receptor; details: cited from earlier work

COc1c(C#N)ccnc1N1C2CCC1CN(C(=O)c1cccnc1-n1cccn1)C2 [SDM‐878, 2‐(3‐(2‐(1H‐pyrazol‐1‐yl)nicotinoyl)‐3,8‐diazabicyclo[3.2.1]octan‐8‐yl)‐3‐methoxyisonicotinonitrile]
effect on duration of REM sleep [1]: did not observe a significant effect | effect on duration of NREM sleep ([1]; P < .05): significantly increased | effect on time spent in wakefulness ([1]; P < .05): significantly decreased | effect on total sleep ([1]; P < .05): significantly increased | inhibitory effects on 55 other molecular targets [2]: ≤ 50% | concentration at 30 min ([3]; 30 mg/kg): 110 ng/mL and 28 ng/g | concentration at 30 min ([3]; 100 mg/kg): 601 ng/mL and 198 ng/g | half-life ([4]; iv, 1 mg/kg): 22.2 min | Cmax ([4]; po, 30 mg/kg): 1180 ng/mL | Tmax ([4]; po, 30 mg/kg): 15 min | half-life ([4]; po, 30 mg/kg): 25.8 min | effect on spontaneous locomotor activity [5]: did not affect

Cc1cc(C)nc(N2CC3CN(C(=O)c4c(F)cccc4-n4nccn4)CC3C2)n1 (stereo not shown) [JNJ‐42847922]
effect on REM sleep ([6]; rats ref 19, 23): did not exert a significant effect | effect on NREM sleep time ([6]; rats, first 2 hours of sleep ref 19, 23): prolonged

[Ala^11, D‐Leu^15]‐orexin‐B [ADL‐OXB]
selectivity for the OX2 receptor over the OX1 receptor [7]: 400 fold

orexin‐B
fold higher affinity for the OX2 receptor than for the OX1 receptor [8]: 10 fold
